Experimental data as given in the supplement of paper PMC11061612.

Experiments:
Experiment in all cases: Bliss excess, mean over the matrix (fraction); higher = more synergy
[1] = system: LB771-HNC (Head and Neck Carcinoma)
Outline: (§1)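 Cell lines grown in DMEM/F12 or RPMI with 10% FBS were plated in 1536-well plates and held 24 hours at 37°C, 5% CO2 before 72 hours of exposure to two-drug dose matrices, with DMSO typically at 0.2%. CellTiter-Glo 2.0 luminescence gave viability, which was converted to inhibition. Vehicle wells were set to 0 and blank wells to 1. Combination Emax is the second-highest inhibition in the matrix, and Bliss excess is the observed combination effect minus the expected EA + EB − EA·EB, where EA and EB are the single-agent effects.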

[2] = system: PCI-30 (Head and Neck Carcinoma)
Outline: as §1

[3] = system: KYSE-410 (Esophageal Squamous Cell Carcinoma)
Outline: as §1

[4] = system: CAL-54 (Kidney Carcinoma)
Outline: as §1

[5] = system: RT-112 (Bladder Carcinoma)
Outline: as §1

[6] = system: LU-139 (Small Cell Lung Carcinoma)
Outline: as §1

[7] = system: SUP-T1 (T-Lymphoblastic Leukemia)
Outline: as §1

HMV-II (Melanoma) = system: HMV-II (Melanoma)
Outline: as §1

NCI-H28 (Mesothelioma) = system: NCI-H28 (Mesothelioma)
Outline: as §1

[8] = system: OC-314 (Ovarian Carcinoma)
Outline: as §1

[9] = system: MDA-MB-468 (Breast Carcinoma)
Outline: as §1

[10] = system: KARPAS-231 (B-Cell Non-Hodgkin's Lymphoma)
Outline: as §1

[11] = system: TE-4 (Esophageal Squamous Cell Carcinoma)
Outline: as §1

[12] = system: CAL-51 (Breast Carcinoma)
Outline: as §1

COLO-829 (Melanoma) = system: COLO-829 (Melanoma)
Outline: as §1

[13] = system: SW1271 (Small Cell Lung Carcinoma)
Outline: as §1

[14] = system: 8305C (Thyroid Gland Carcinoma)
Outline: as §1

[15] = system: NCI-H747 (Colorectal Carcinoma)
Outline: as §1

[16] = system: RKO (Colorectal Carcinoma)
Outline: as §1

| Structure (SMILES) | Bliss excess [1] | Bliss excess [2] | Bliss excess [3] | Bliss excess [4] | Bliss excess [5] | Bliss excess [6] | Bliss excess [7] | Bliss excess (HMV-II (Melanoma)) | Bliss excess (NCI-H28 (Mesothelioma)) | Bliss excess [8] | Bliss excess [9] | Bliss excess [10] | Bliss excess [11] | Bliss excess [12] | Bliss excess (COLO-829 (Melanoma)) | Bliss excess [13] | Bliss excess [14] | Bliss excess [15] | Bliss excess [16] |
| --- | --- | --- | --- | --- | --- | --- | --- | --- | --- | --- | --- | --- | --- | --- | --- | --- | --- | --- | --- |
| NC1(C(=O)N[C@@H](CCO)c2ccc(Cl)cc2)CCN(c2ncnc3[nH]ccc23)CC1 [Capivasertib] + Cn1cnc2c(F)c(Nc3ccc(Br)cc3Cl)c(C(=O)NOCCO)cc21 [Selumetinib] (first compound max 10 µM, 7x7, partner max 10 µM) | -0.0595 | -0.0097 | 0.0521 | 0.0079 | 0.01 | -0.0165 | 0.0063 | -0.005 | -0.0231 | 0.0668 | 0.0736 | -0.0465 | 0.102 | 0.0176 | 0.0367 | 0.0312 | -0.0212 | -0.0187 | 0.0463 |
| Cc1nc(Nc2ncc(C(=O)Nc3c(C)cccc3Cl)s2)cc(N2CCN(CCO)CC2)n1 [Dasatinib] + CC(=O)Nc1cccc(-n2c(=O)n(C3CC3)c(=O)c3c(Nc4ccc(I)cc4F)n(C)c(=O)c(C)c32)c1 [Trametinib] (first compound max 2 µM, 7x7, partner max 1 µM) | -0.0363 | -0.0727 | -0.0622 | -0.0031 | -0.0344 | -0.0243 | -0.0967 | -0.136 | -0.0021 | 0.0153 | -0.0521 | -0.0267 | -0.12 | -0.017 | -0.159 | 0.119 | 0.0279 | -0.0238 | 0.119 |
| CS(=O)(=O)CCNCc1ccc(-c2ccc3ncnc(Nc4ccc(OCc5cccc(F)c5)c(Cl)c4)c3c2)o1 [Lapatinib] + C[C@@H](Oc1cc(-c2cnn(C3CCNCC3)c2)cnc1N)c1c(Cl)ccc(F)c1Cl [Crizotinib] (first compound max 10 µM, 7x7, partner max 10 µM) | -0.0398 | -0.0917 | -0.0183 | -0.0801 | 0.0155 | -0.0147 | -0.0469 | -0.11 | -0.0342 | -0.0479 | -0.0582 | 0.0324 | 0.0198 | -0.0029 | -0.0345 | -0.03 | -0.169 | -0.0413 | -0.0977 |
| CC(=O)c1c(C)c2cnc(Nc3ccc(N4CCNCC4)cn3)nc2n(C2CCCC2)c1=O [Palbociclib] + CC1(C)CCC(CN2CCN(c3ccc(C(=O)NS(=O)(=O)c4ccc(NCC5CCOCC5)c([N+](=O)[O-])c4)c(Oc4cnc5[nH]ccc5c4)c3)CC2)=C(c2ccc(Cl)cc2)C1 [Venetoclax] (first compound max 10 µM, 7x7, partner max 1 µM) | -0.0429 | -0.0216 | -0.0511 | -0.008 | 0 | 0.0462 | -0.0942 | -0.0895 | -0.0169 | -0.0526 | -0.0241 | -0.103 | -0.0113 | 0.0055 | 0.0199 | -0.0513 | -0.0306 | 0.017 | -0.0498 |
| CC(=O)c1c(C)c2cnc(Nc3ccc(N4CCNCC4)cn3)nc2n(C2CCCC2)c1=O [Palbociclib] + Cc1c2c(nn1C)CSCc1cc(n(C)n1)CSc1cc(c3ccccc3c1)OCCCc1c(C(=O)O)n(C)c3c-2c(Cl)ccc13 [AZD5991] (first compound max 10 µM, 7x7, partner max 1 µM) | -0.0622 | -0.0224 | -0.0657 | -0.0781 | -0.0524 | 0.0198 | 0.0394 | -0.0185 | -0.0319 | -0.023 | 0.0078 | -0.0835 | -0.0598 | 0.0124 | -0.0232 | -0.0193 | -0.0706 | -0.0196 | 0.0342 |
| CC(=O)c1c(C)c2cnc(Nc3ccc(N4CCNCC4)cn3)nc2n(C2CCCC2)c1=O [Palbociclib] + Cn1cnc2c(F)c(Nc3ccc(Br)cc3Cl)c(C(=O)NOCCO)cc21 [Selumetinib] (first compound max 10 µM, 7x7, partner max 10 µM) | -0.0893 | -0.0814 | 0.0141 | -0.0125 | -0.0333 | 0.0109 | -0.0478 | -0.0203 | -0.0508 | 0.0141 | -0.0555 | -0.134 | -0.0115 | 0.0035 | -0.0772 | -0.0417 | 0.0123 | -0.0022 | 0.082 |
| Cn1cnc2c(F)c(Nc3ccc(Br)cc3Cl)c(C(=O)NOCCO)cc21 [Selumetinib] + CCN(CCO)CCCOc1ccc2c(Nc3cc(CC(=O)Nc4cccc(F)c4)[nH]n3)ncnc2c1 [AZD2811] (first compound max 10 µM, 7x7, partner max 1 µM) | -0.0486 | -0.0396 | 0.0033 | -0.0129 | -0.0741 | 0.0062 | 0.0328 | -0.0477 | -0.0745 | -0.0193 | – | -0.0043 | -0.0273 | 0.0356 | -0.0341 | -0.0324 | -0.0075 | -0.0428 | 0.088 |
| Cn1cnc2c(F)c(Nc3ccc(Br)cc3Cl)c(C(=O)NOCCO)cc21 [Selumetinib] + C[C@@H]1COCCN1C2=NC(=NC(=C2)C3(CC3)[S@](=N)(=O)C)C4=C5C=CNC5=NC=C4 [AZD6738] (first compound max 10 µM, 7x7, partner max 10 µM) | -0.0532 | -0.0327 | 0.0274 | -0.0083 | -0.0088 | -0.0259 | -0.0747 | -0.0384 | -0.0096 | -0.0764 | – | 0.0287 | -0.0063 | 0.0209 | 0.102 | 0.0072 | -0.0238 | 0.002 | -0.0041 |
